Assay results taken from the supplement of paper PMC10307832.

Tests used:
Assay in all cases: relative viability (nuclei count vs DMSO), 5 days (fraction); higher = more cells survive
GSK126 + Dasatinib = compound: CC[C@H](C)N1C=C(C2=C(C=C(C=C21)C3=CN=C(C=C3)N4CCNCC4)C(=O)NCC5=C(C=C(NC5=O)C)C)C [GSK126] + Cc1nc(Nc2ncc(C(=O)Nc3c(C)cccc3Cl)s2)cc(N2CCN(CCO)CC2)n1 [Dasatinib] (partner 0.075 µM)
Procedure, shortened: (§1)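 Nuclei were stained with Hoechst during a one-step fixation (final 0.05% Triton X-100, 1% formaldehyde, 1 ug/ml Hoechst) carried out 5 days after dosing, then counted on 4× images. The cells, lung cancer lines in 1536-well plates, had been dosed by pin tool the day after seeding with one drug alone or a fixed anchor-drug dose plus five library-drug doses (not always all listed) in √10 steps. Relative viability is the nuclei count in treated wells divided by that in vehicle wells, and each value is the median of duplicate plates.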

GSK126 + Trametinib = compound: CC[C@H](C)N1C=C(C2=C(C=C(C=C21)C3=CN=C(C=C3)N4CCNCC4)C(=O)NCC5=C(C=C(NC5=O)C)C)C [GSK126] + CC(=O)Nc1cccc(-n2c(=O)n(C3CC3)c(=O)c3c(Nc4ccc(I)cc4F)n(C)c(=O)c(C)c32)c1 [Trametinib] (partner 0.02 µM)
Procedure, shortened: as §1

Carboplatin + Lapatinib = compound: C1CC(C1)(C(=O)O)C(=O)O.[NH2-].[NH2-].[Pt+2] [Carboplatin] + CS(=O)(=O)CCNCc1ccc(-c2ccc3ncnc(Nc4ccc(OCc5cccc(F)c5)c(Cl)c4)c3c2)o1 [Lapatinib] (partner 2 µM)
Procedure, shortened: as §1

GSK126 + Lapatinib = compound: CC[C@H](C)N1C=C(C2=C(C=C(C=C21)C3=CN=C(C=C3)N4CCNCC4)C(=O)NCC5=C(C=C(NC5=O)C)C)C [GSK126] + CS(=O)(=O)CCNCc1ccc(-c2ccc3ncnc(Nc4ccc(OCc5cccc(F)c5)c(Cl)c4)c3c2)o1 [Lapatinib] (partner 2 µM)
Procedure, shortened: as §1

Cell Line	relative viability (GSK126 + Dasatinib; first compound 0.08 µM)	relative viability (GSK126 + Dasatinib; first compound 0.253 µM)	relative viability (GSK126 + Dasatinib; first compound 0.8 µM)	relative viability (GSK126 + Dasatinib; first compound 2.53 µM)	relative viability (GSK126 + Dasatinib; first compound 8 µM)	relative viability (GSK126 + Trametinib; first compound 0.08 µM)	relative viability (GSK126 + Trametinib; first compound 0.253 µM)	relative viability (GSK126 + Trametinib; first compound 0.8 µM)	relative viability (GSK126 + Trametinib; first compound 2.53 µM)	relative viability (GSK126 + Trametinib; first compound 8 µM)	relative viability (Carboplatin + Lapatinib; first compound 0.08 µM)	relative viability (Carboplatin + Lapatinib; first compound 0.253 µM)	relative viability (Carboplatin + Lapatinib; first compound 0.8 µM)	relative viability (Carboplatin + Lapatinib; first compound 2.53 µM)	relative viability (Carboplatin + Lapatinib; first compound 8 µM)	relative viability (GSK126 + Lapatinib; first compound 0.08 µM)	relative viability (GSK126 + Lapatinib; first compound 0.253 µM)	relative viability (GSK126 + Lapatinib; first compound 0.8 µM)	relative viability (GSK126 + Lapatinib; first compound 2.53 µM)	relative viability (GSK126 + Lapatinib; first compound 8 µM)
NCI-H520	0.184	0.172	0.185	0.19	0.238	0.748	0.665	0.563	0.807	0.817	1.07	0.985	1.03	0.784	0.59	1.09	0.713	0.722	0.898	0.922
NCI-H661	1.11	0.745	0.755	0.664	0.653	0.632	0.548	0.523	0.596	0.687	0.649	0.511	0.331	0.369	0.459	0.417	0.574	0.441	0.572	0.361
NCI-H1975	0.389	0.366	0.375	0.355	0.291	0.377	0.31	0.362	0.369	0.352	0.877	0.993	0.838	0.826	0.884	0.952	0.898	0.916	0.852	0.888
NCI-H1355	0.842	0.733	0.705	0.842	0.727	0.435	0.412	0.4	0.421	0.468	1.12	1.11	1.09	1.06	0.93	1.04	1.07	0.989	0.967	0.992
